This note sets out measurements from US20020049223A1, “Quinoline and naphthyridine carboxylic acid antibacterials” (priority 1999, published 2002).

Series [1] concerns Enterococcus faecalis PIU 1967. Kind of series: Assay A: in vitro antibacterial activity, agar dilution MIC. Type of series: cell-based. Particulars: Table 1, Assay A, BHI agar, 35-37° C., about 20 to 24 hours; code B = Enterococcus faecalis PIU 1967; unit assumed. As for the experimental part: (§1) Assay A. Determination of Biological Activity In Vitro Assay of Antibacterial Activity
(§2) Representative compounds of the invention were assayed in vitro for antibacterial activity. Twelve petri dishes containing successive aqueous dilutions of the test compound mixed with sterilized Brain Heart Infusion (BHI) agar (Difco 0418-01-5) (10 mL) were prepared. Each plate was inoculated with 1:100 (or 1:10 for slow-growing strains, such as Micrococcus and Streptococcus) dilutions of up to 32 different microorganisms using a Steers replicator block. The inoculated plates were incubated at 35-37° C. for about 20 to about 24 hours. In addition, a control plate with BHI agar and no test compound was prepared and incubated at the beginning and end of each test.
(§3) An additional plate containing a compound having known susceptibility patterns for the organisms being tested and belonging to the same antibiotic class as the test compound was also prepared and incubated as a further control and to provide test-to-test comparability. Ciprofloxacin was used for this purpose.
(§4) After incubation, each plate was visually inspected. The minimum inhibitory concentration (MIC) was defined as the lowest concentration of drug yielding no growth, a slight haze, or sparsely isolated colonies on the inoculum spot as compared to the growth control.

The test system of another series is Escherichia coli JUHL. The series is described as above. The series is classed as cell-based. Particulars: Table 1, Assay A, BHI agar, 35-37° C., about 20 to 24 hours; code D = Escherichia coli JUHL; unit assumed. Here is the method: as §1, §2, §3, §4
For series [2], the system named is Haemophilus influenzae DILL AMP R. The description is as above. Particulars: Table 1, Assay A, BHI agar, 35-37° C., about 20 to 24 hours; code E = Haemophilus influenzae DILL AMP R; unit assumed. The series is classed as cell-based. As for the experimental part:
as §1, §2, §3, §4

Series [3] relates to Moraxella catarrahalis 2604. The series is described as above. Type of series: cell-based. Particulars: Table 1, Assay A, BHI agar, 35-37° C., about 20 to 24 hours; code C = Moraxella catarrahalis 2604; unit assumed. As for the experimental part:
as §1, §2, §3, §4

In series [4] the test system is Staphylococcus aureus ATCC 6538P. Described as above. Particulars: Table 1, Assay A, BHI agar, 35-37° C., about 20 to 24 hours; code A = Staphylococcus aureus ATCC 6538P; unit assumed. Type of series: cell-based. Here is the method:
as §1, §2, §3, §4

Series [5] deals with Streptococcus pneumoniae ATCC 6303. The series is described as above. Type of series: cell-based. Particulars: Table 1, Assay A, BHI agar, 35-37° C., about 20 to 24 hours; code F = Streptococcus pneumoniae ATCC 6303; unit assumed. As for the experimental part:
as §1, §2, §3, §4

As a reminder, the melting point is the temperature of the solid-liquid transition. On to `COc1c(-c2cc3c(s2)CCNC3)ccc2c(=O)c(C(=O)O)cn(C3CC3)c12.Cl` [Example 2, 1-cyclopropyl-8-methoxy-4-oxo-7-(4,5,6,7-tetrahydrothieno[3,2-c]pyridin-2-yl)-1,4-dihydro-3-quinolinecarboxylic acid hydrochloride], for which the melting point was 180 °C (dec.). The Antibacterial Activity (MIC's), B in series [1] was found to be 0.2 µg/mL. In the series with Escherichia coli JUHL, this molecule had an Antibacterial Activity (MIC's), D of 0.2 µg/mL. In series [2], the Antibacterial Activity (MIC's), E turned out to be 0.12 µg/mL. The Antibacterial Activity (MIC's), C in series [3] is 0.2 µg/mL. The Antibacterial Activity (MIC's), A in series [4] turned out to be 0.05 µg/mL. The molecule further came in with an Antibacterial Activity (MIC's), F in series [5] of 0.5 µg/mL.
For `COc1c(-c2cc3c(s2)CNCC3)ccc2c(=O)c(C(=O)O)cn(C3CC3)c12.Cl` [Example 7, 1-cyclopropyl-8-methoxy-4-oxo-7-(4,5,6,7-tetrahydrothieno(2,3-c)pyridin-2-yl)-1,4-dihydro-3-quinolinecarboxylic acid hydrochloride], the melting point is 188 to 189 °C. This molecule gave an Antibacterial Activity (MIC's), B in series [1] of 0.39 µg/mL. Also, the Antibacterial Activity (MIC's), D in the series with Escherichia coli JUHL came out at 0.2 µg/mL. This molecule yielded an Antibacterial Activity (MIC's), E in series [2] of 0.06 µg/mL. In addition, the Antibacterial Activity (MIC's), C in series [3] amounted to 0.2 µg/mL. The same molecule came in with an Antibacterial Activity (MIC's), A in series [4] of 0.2 µg/mL. The molecule further returned an Antibacterial Activity (MIC's), F in series [5] of 0.25 µg/mL.
For `Cl.O=C(O)c1cn(C2CC2)c2nc(-c3cc4c(s3)CNCC4)c(F)cc2c1=O` [Example 9, 1-cyclopropyl-6-fluoro-4-oxo-7-(4,5,6,7-tetrahydrothieno(2,3-c)pyridin-2-yl)-1,4-dihydro[1,8]naphthyridine-3-carboxylic acid hydrochloride], the melting point is 290 to 291 °C. This molecule returned an Antibacterial Activity (MIC's), B in series [1] of 0.2 µg/mL. In the series on Escherichia coli JUHL, this molecule showed an Antibacterial Activity (MIC's), D of 0.1 µg/mL. The molecule also displayed an Antibacterial Activity (MIC's), E in series [2] of 0.06 µg/mL. Moreover, the Antibacterial Activity (MIC's), C in series [3] was found to be 0.1 µg/mL. Besides, in series [4], the Antibacterial Activity (MIC's), A was determined as 0.1 µg/mL. This molecule also yielded an Antibacterial Activity (MIC's), F in series [5] of 0.125 µg/mL.
As for `Br.CC1NCCc2sc(-c3ccc4c(=O)c(C(=O)O)cn(C5CC5)c4c3OC(F)F)cc21` (stereo not shown) [Example 20, 1-cyclopropyl-8-(difluoromethoxy)-7-(4-methyl-4,5,6,7-tetrahydrothieno[3,2-c]pyridin-2-yl)-4-oxo-1,4-dihydro-3-quinolinecarboxylic acid hydrobromide], the melting point was 176 to 180 °C (dec.). In series [1], this molecule had an Antibacterial Activity (MIC's), B of 0.78 µg/mL. Moreover, the Antibacterial Activity (MIC's), D in the series on Escherichia coli JUHL was determined as 0.78 µg/mL. This molecule came in with an Antibacterial Activity (MIC's), E in series [2] of 0.25 µg/mL. The molecule further yielded an Antibacterial Activity (MIC's), C in series [3] of 0.78 µg/mL. In addition, the Antibacterial Activity (MIC's), A in series [4] was determined as 0.2 µg/mL. The Antibacterial Activity (MIC's), F in series [5] was 1 µg/mL.
Molecule `CC1NCCc2cc(-c3nc4c(cc3F)c(=O)c(C(=O)O)cn4C3CC3)sc21.Cl` (stereo not shown) [Example 22, 1-cyclopropyl-6-fluoro-7-(7-methyl-4,5,6,7-tetrahydrothieno(2,3-c)pyridin-2-yl)-4-oxo-1,4-dihydro[1,8]naphthyridine-3-carboxylic acid hydrochloride] came in with a melting point of 293 to 294 °C. Further, in series [1], the Antibacterial Activity (MIC's), B came to 0.78 µg/mL. For the same molecule, the Antibacterial Activity (MIC's), D with Escherichia coli JUHL stood at 0.78 µg/mL. Further, in series [2], the Antibacterial Activity (MIC's), E came out at 0.25 µg/mL. The Antibacterial Activity (MIC's), C in series [3] came out at 0.39 µg/mL. Further, the Antibacterial Activity (MIC's), A in series [4] was 0.2 µg/mL. For the same molecule, the Antibacterial Activity (MIC's), F in series [5] was found to be 2 µg/mL.
For `COc1c(-c2cc3c(s2)CCCC3N)ccc2c(=O)c(C(=O)O)cn(C3CC3)c12.Cl` (stereo not shown) [Example 40, 7-(4-amino-4,5,6,7-tetrahydro-1-benzothien-2-yl)-1-cyclopropyl-8-methoxy-4-oxo-1,4-dihydro-3-quinolinecarboxylic acid hydrochloride], the melting point lay in the range of 219 to 222 °C. The same molecule came in with an Antibacterial Activity (MIC's), B in series [1] of 0.1 µg/mL. In addition, in the series with Escherichia coli JUHL, the Antibacterial Activity (MIC's), D amounted to 0.2 µg/mL. In addition, the Antibacterial Activity (MIC's), E in series [2] amounted to 0.06 µg/mL. This molecule also displayed an Antibacterial Activity (MIC's), C in series [3] of 0.1 µg/mL. This molecule had an Antibacterial Activity (MIC's), A in series [4] of 0.02 µg/mL. The molecule further had an Antibacterial Activity (MIC's), F in series [5] of 0.125 µg/mL.
Molecule `COc1c(-c2cc3c(s2)CCC(O)C3)ccc2c(=O)c(C(=O)O)cn(C3CC3)c12` (stereo not shown) [Example 42, 1-cyclopropyl-7-(5-hydroxy-4,5,6,7-tetrahydro-1-benzothien-2-yl)-8-methoxy-4-oxo-1,4-dihydro-3-quinolinecarboxylic acid] had a melting point of 232 to 233 °C. In series [1], this molecule came in with an Antibacterial Activity (MIC's), B of 0.39 µg/mL. This molecule also had an Antibacterial Activity (MIC's), D in the series on Escherichia coli JUHL of 0.78 µg/mL. The Antibacterial Activity (MIC's), E in series [2] was 0.125 µg/mL. In addition, the Antibacterial Activity (MIC's), C in series [3] came out at 0.02 µg/mL. In series [4], this molecule registered an Antibacterial Activity (MIC's), A of 0.02 µg/mL. Further, in series [5], the Antibacterial Activity (MIC's), F came out at 0.25 µg/mL.
In series [1], `O=C1CCCc2sc(-c3nc4c(cc3F)c(=O)c(C(=O)O)cn4C3CC3)cc21` [Example 48, 1-cyclopropyl-6-fluoro-4-oxo-7-(4-oxo-4,5,6,7-tetrahydro-1-benzothien-2-yl)-1,4-dihydro[1,8]naphthyridine-3-carboxylic acid] registered an Antibacterial Activity (MIC's), B of 0.2 µg/mL. The Antibacterial Activity (MIC's), D in the series with Escherichia coli JUHL is 0.78 µg/mL. This molecule registered an Antibacterial Activity (MIC's), E in series [2] of 0.06 µg/mL. The molecule further had an Antibacterial Activity (MIC's), C in series [3] of 0.02 µg/mL. In series [4], this molecule displayed an Antibacterial Activity (MIC's), A of 0.02 µg/mL. In series [5], the Antibacterial Activity (MIC's), F amounted to 0.25 µg/mL.
`O=C(O)c1cn(C2CC2)c2nc(-c3cc4c(s3)CCC/C4=N\O)c(F)cc2c1=O` [Example 49, 1-cyclopropyl-6-fluoro-7-((4E)-4-(hydroxyimino)-4,5,6,7-tetrahydro-1-benzothien-2-yl)-4-oxo-1,4-dihydro[1,8]naphthyridine-3-carboxylic acid] displayed an Antibacterial Activity (MIC's), B in series [1] of 0.39 µg/mL. This molecule also displayed an Antibacterial Activity (MIC's), D in the series with Escherichia coli JUHL of 0.78 µg/mL. The molecule further had an Antibacterial Activity (MIC's), E in series [2] of 0.06 µg/mL. In series [3], the Antibacterial Activity (MIC's), C is 0.05 µg/mL. The same molecule showed an Antibacterial Activity (MIC's), A in series [4] of 0.05 µg/mL. This molecule had an Antibacterial Activity (MIC's), F in series [5] of 0.25 µg/mL.
In series [1], `CC1NCCc2cc(-c3ccc4c(=O)c(C(=O)O)cn(C5CC5)c4c3OC(F)F)sc21.Cl` (stereo not shown) [Example 52, 1-cyclopropyl-8-diflouromethoxy-7-(7-methyl-4,5,6,7-tetrahydrotheino(2,3-c)pyrindin-2-yl)-4-oxo-1,4-dihydro-3-quinolinecarboxylic acid hydrochloride] gave an Antibacterial Activity (MIC's), B of 0.78 µg/mL. Besides, the Antibacterial Activity (MIC's), D with Escherichia coli JUHL was 0.39 µg/mL. The Antibacterial Activity (MIC's), E in series [2] was determined as 0.25 µg/mL. In series [3], this molecule registered an Antibacterial Activity (MIC's), C of 0.2 µg/mL. Besides, the Antibacterial Activity (MIC's), A in series [4] amounted to 0.2 µg/mL. In series [5], this molecule yielded an Antibacterial Activity (MIC's), F of 0.25 µg/mL.
